How the values were obtained:
[1] = molecular target: T1, Calreticulin transacetylase (CRTAase) (Homo sapiens, UniProt P27797); assay: TAase (calreticulin transacetylase) activity; format: biochemical
T1 sequence (P27797 18-417): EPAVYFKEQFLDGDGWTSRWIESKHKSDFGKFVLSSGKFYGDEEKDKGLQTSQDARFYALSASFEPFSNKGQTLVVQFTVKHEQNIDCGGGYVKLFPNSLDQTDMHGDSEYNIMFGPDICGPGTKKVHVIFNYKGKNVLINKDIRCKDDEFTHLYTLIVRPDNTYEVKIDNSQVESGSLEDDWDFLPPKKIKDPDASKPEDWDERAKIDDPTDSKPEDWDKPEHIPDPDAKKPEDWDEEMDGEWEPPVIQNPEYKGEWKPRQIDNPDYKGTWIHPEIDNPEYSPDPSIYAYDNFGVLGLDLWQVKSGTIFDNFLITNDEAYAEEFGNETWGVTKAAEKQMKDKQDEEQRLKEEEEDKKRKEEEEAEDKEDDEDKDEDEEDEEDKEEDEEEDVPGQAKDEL
Description: (§1) Platelet Nitric Oxide Synthase (NOS) is remakably activated by way of acetylation catalyzed by Calreticulin transacetylase (CRTAase) leading to robust enhancement of NO in platelets. Compounds of Formula I enhance NO in platelets. Due to this activity, these compounds enhance the NOS leading to enhancement of platelet NO which contributes to the antiplatelet action. […] They are effective in causing the inhibition of ADP induced as well as collagen induced platelet aggregation both invitro and exvivo.

platelets [2] = assay: ADP-induced platelet aggregation in vitro (platelet rich plasma); format: cell-based
Description: A. Preparation of Platelet Rich, Plasma for the IN VITRO Studies

platelets [3] = assay: ADP-induced platelet aggregation ex vivo (platelet rich plasma); format: in vivo
Description: C. Preparation of Platelet Rich Plasma for the EX VIVO Studies

[4] = test system: intracellular nitric oxide level in platelets; assay: Enhancement of nitric oxide in platelets; format: cell-based
Description: Nitric oxide is known to mediate a number of pharmacological actions such as vasorelaxation, lowereing of blood pressure and inhibition of platelet aggregation. […] The specific acyl group attached to the coumarin derivative is attributed to the enhancement of intracellular nitric oxide level leading to the inhibition of ADP induced platelet aggregation.
as §1

**Q.** For `COC(=O)C(c1ccccc1Cl)N1CCc2sccc2C1` (centres unmarked), which “TAase activity (Units)” value [1] is on record?
**A.** Nil

**Q.** And the “ADP-induced platelet aggregation (% inhibition) IN VITRO” value (platelets [2])?
**A.** Nil

**Q.** And the “ADP-induced platelet aggregation (% inhibition) EX VIVO” value (platelets [3])?
**A.** 65%

**Q.** What about the “Enhancement of nitric oxide (folds)” value [4] of the same compound?
**A.** Nil

**Q.** What does the source list for `CC(=O)Oc1ccccc1C(=O)O` [ASPIRIN, Aspirin]?
**A.** TAase activity (Units) [1]: Nil; ADP-induced platelet aggregation (% inhibition) IN VITRO (platelets [2]): Nil; ADP-induced platelet aggregation (% inhibition) EX VIVO (platelets [3]): 55%; Enhancement of nitric oxide (folds) [4]: Nil

— patent US20110178168A1, “COUMARIN COMPOUNDS FOR THE TREATMENT OF CARDIOVASCULAR DISEASES AND A PROCESS FOR PREPARING THE SAME” (priority 2008, published 2011)
